The values that follow come from patent US10174016B2 (BAYER AKTIENGESELLSCHAFT, priority 2014, dated 2019).

SMILES strings stand for the structures. pIC50: −log10 of the molar value.

One test has as its target human P2X3 receptor (Homo sapiens (Human), UniProt P56373). As to the kind of experiment: Intracellular calcium measurement (FLIPR, Fluo-4) of antagonist activity at human P2X3 receptors. As to conditions: human P2X3, FLIPR calcium assay, agonist α,β-Me-ATP; read-out: hP2X3 IC50. Type of test: cell-based. An outline of the steps: (§1)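 Antagonism quantified from peak calcium fluorescence (Fluo-4, FLIPR, 90 sec read) evoked by EC80 α,β-Me-ATP, after a 30 min, 37° C. compound pretreatment in 1% DMSO. Human P2X3- or P2X2/3-expressing cells used; triplicate means fitted for IC50, percent maximal inhibition and Hill coefficient.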
(In general: Calcium assays in cells follow changes in intracellular calcium, usually with a dye or a luminescent sensor.)

For the next test, the target named is human P2X2/3 receptor (Homo sapiens (Human), UniProt P56373+Q9UBL9). As to the kind of experiment: Intracellular calcium measurement (FLIPR, Fluo-4) of antagonist activity at human P2X2/3 receptors. In kind it is cell-based. As to conditions: human P2X2/3, FLIPR calcium assay, agonist α,β-Me-ATP; read-out: hP2X2/3 IC50. The method in brief: as §1
Chain of human P2X2/3 receptor (P56373 whole entry): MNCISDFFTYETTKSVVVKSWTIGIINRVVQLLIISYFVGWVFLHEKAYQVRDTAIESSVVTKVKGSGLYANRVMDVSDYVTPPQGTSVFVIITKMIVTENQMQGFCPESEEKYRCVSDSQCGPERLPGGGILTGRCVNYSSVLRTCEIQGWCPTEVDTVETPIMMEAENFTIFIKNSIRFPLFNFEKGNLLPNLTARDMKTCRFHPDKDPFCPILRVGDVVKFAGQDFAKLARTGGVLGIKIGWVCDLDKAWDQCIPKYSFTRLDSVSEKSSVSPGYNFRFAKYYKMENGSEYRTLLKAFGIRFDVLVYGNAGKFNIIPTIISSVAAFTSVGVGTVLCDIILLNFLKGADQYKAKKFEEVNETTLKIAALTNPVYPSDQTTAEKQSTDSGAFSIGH
Chain of human P2X2/3 receptor (Q9UBL9 whole entry): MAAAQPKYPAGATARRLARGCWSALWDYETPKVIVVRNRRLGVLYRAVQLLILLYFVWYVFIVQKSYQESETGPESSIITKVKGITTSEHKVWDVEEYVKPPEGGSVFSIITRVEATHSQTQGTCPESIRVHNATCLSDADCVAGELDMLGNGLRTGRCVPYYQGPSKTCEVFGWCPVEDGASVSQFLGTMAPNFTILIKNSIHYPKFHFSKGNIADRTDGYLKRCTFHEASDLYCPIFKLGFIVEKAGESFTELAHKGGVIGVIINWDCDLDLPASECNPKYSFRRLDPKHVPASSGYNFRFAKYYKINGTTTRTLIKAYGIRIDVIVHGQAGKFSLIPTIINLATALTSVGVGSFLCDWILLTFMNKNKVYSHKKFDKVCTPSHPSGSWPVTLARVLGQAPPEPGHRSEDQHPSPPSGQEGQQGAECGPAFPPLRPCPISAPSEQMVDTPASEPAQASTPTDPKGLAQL

Chain of human P2X3 receptor (P56373 whole entry): as the sequence (P56373 whole entry) above

Regarding `CCc1cnc(-c2cc(OC[C@@H]3CN(C)CCO3)cc(C(=O)N[C@H](C)c3cnc(C(F)(F)F)nc3)c2)s1` [Example 375, 3-(5-ethyl-1,3-thiazol-2-yl)-5-{[(2S)-4-methylmorpholin-2-yl]methoxy}-N-{(1R)-1-[2-(trifluoromethyl)pyrimidin-5-yl]ethyl}benzamide], the pIC50 at human P2X3 receptor is 7.96; on human P2X2/3 receptor, 6.73.
Take `C[C@@H](NC(=O)c1cc(OC[C@@H]2CN(C)CCO2)cc(-c2ncc(Cl)s2)c1)c1cnc(C(F)(F)F)nc1` [Example 376, 3-(5-chloro-1,3-thiazol-2-yl)-5-{[(2S)-4-methylmorpholin-2-yl]methoxy}-N-{(1R)-1-[2-(trifluoromethyl)pyrimidin-5-yl]ethyl}benzamide]: the values for the pIC50 on human P2X3 receptor and on human P2X2/3 receptor were 7.49 and 6.05, respectively.
As to `CCc1cnc(-c2cc(OC[C@H]3CN(C)CCO3)cc(C(=O)N[C@H](C)c3cnc(C(F)(F)F)nc3)c2)s1` [Example 377, 3-(5-ethyl-1,3-thiazol-2-yl)-5-{[(2R)-4-methylmorpholin-2-yl]methoxy}-N-{(1R)-1-[2-(trifluoromethyl)pyrimidin-5-yl]ethyl}benzamide], the figures for the pIC50 at human P2X3 receptor and on human P2X2/3 receptor were 8.30 and 6.56, respectively.
Take `Cc1cnc(-c2cc(OC[C@@H]3CCCN3C)cc(C(=O)N[C@H](C)c3cnc(C(F)(F)F)nc3)c2)s1` [Example 378, 3-{[(2S)-1-methylpyrrolidin-2-yl]methoxy}-5-(5-methyl-1,3-thiazol-2-yl)-N-{(1R)-1-[2-(trifluoromethyl)pyrimidin-5-yl]ethyl}benzamide]: the pIC50 on human P2X3 receptor was 7.22; on human P2X2/3 receptor, 5.43.
With `Cc1cnc(-c2cc(OC[C@H]3CCCN3C)cc(C(=O)N[C@H](C)c3cnc(C(F)(F)F)nc3)c2)s1` [Example 379, 3-{[(2R)-1-methylpyrrolidin-2-yl]methoxy}-5 (5-methyl-1,3-thiazol-2-yl)-N-{(1R)-1-[2-(trifluoromethyl)pyrimidin-5-yl]ethyl}benzamide], the pIC50 on human P2X3 receptor is 7.38; at human P2X2/3 receptor it was 5.56.
Consider `Cc1cnc(-c2cc(OCC3CCN(C)CC3)cc(C(=O)N[C@H](C)c3cnc(C(F)(F)F)nc3)c2)s1` [Example 380, 3-[(1-methylpiperidin-4-yl)methoxy]-5-(5-methyl-1,3-thiazol-2-yl)-N-{(1R)-1-[2-(trifluoromethyl)pyrimidin-5-yl]ethyl}benzamide], for which the pIC50 on human P2X3 receptor was 7.49; on human P2X2/3 receptor it was 5.54.
With `Cc1cnc(-c2cc(OC[C@H]3CN(C(C)C)CCO3)cc(C(=O)N[C@H](C)c3cnc(C(F)(F)F)nc3)c2)s1` [Example 381, 3-(5-methyl-1,3-thiazol-2-yl)-5-{[(2R)-4-(propan-2-yl)morpholin-2-yl]methoxy}-N-{(1R)-1-[2-(trifluoromethyl)pyrimidin-5-yl]ethyl}benzamide], the pIC50 at human P2X3 receptor was 7.80; on human P2X2/3 receptor, 6.02.
In the case of `Cc1cnc(-c2cc(OCC3(F)CN(C)C3)cc(C(=O)N[C@H](C)c3ccc(C(F)(F)F)nc3)c2)s1` [Example 386, 3-[(3-fluoro-1-methylazetidin-3-yl)methoxy]-5-(5-methyl-1,3-thiazol-2-yl)-N-{(1R)-1-[6-(trifluoromethyl)pyridin-3-yl]ethyl}benzamide], the pIC50 was 7.62 at human P2X3 receptor and 6.09 on human P2X2/3 receptor.
Regarding `CCc1cnc(-c2cc(OCC3(F)CN(C)C3)cc(C(=O)N[C@H](C)c3ccc(C(F)(F)F)nc3)c2)s1` [Example 387, 3-(5-ethyl-1,3-thiazol-2-yl)-5-[(3-fluoro-1-methylazetidin-3-yl)methoxy]-N-{(1R)-1-[6-(trifluoromethyl)pyridin-3-yl]ethyl}benzamide], the pIC50 is 7.72 at human P2X3 receptor and 6.34 at human P2X2/3 receptor.
For `Cc1cnc(-c2cc(OC[C@H]3COCCN3C)cc(C(=O)N[C@H](C)c3ccc(C(F)(F)F)nn3)c2)s1` [Example 388, 3-{[(3R)-4-methylmorpholin-3-yl]methoxy}-5-(5-methyl-1,3-thiazol-2-yl)-N-{(1R)-1-[6-(trifluoromethyl)pyridazin-3-yl]ethyl}benzamide] the same measures were 7.74 and 5.87.
With `Cc1cnc(-c2cc(OC[C@@H]3COCCN3C)cc(C(=O)N[C@H](C)c3ccc(C(F)(F)F)nn3)c2)s1` [Example 389, 3-{[(3S)-4-methylmorpholin-3-yl]methoxy}-5-(5-methyl-1,3-thiazol-2-yl)-N-{(1R)-1-[6-(trifluoromethyl)pyridazin-3-yl]ethyl}benzamide], the pIC50 on human P2X3 receptor is 7.74; at human P2X2/3 receptor, 5.79.
On to `CCN1CCO[C@@H](COc2cc(C(=O)N[C@H](C)c3cnc(C(F)(F)F)nc3)cc(-c3ncc(C)s3)c2)C1` [Example 390, 3-{[(2R)-4-ethylmorpholin-2-yl]methoxy}-5-(5-methyl-1,3-thiazol-2-yl)-N-{(1R)-1-[2-(trifluoromethyl)pyrimidin-5-yl]ethyl}benzamide], for which the pIC50 at human P2X3 receptor is 7.77; on human P2X2/3 receptor it was 6.09.
For the compound `Cc1cnc(-c2cc(OC[C@H]3CN(CC(F)F)CCO3)cc(C(=O)N[C@H](C)c3cnc(C(F)(F)F)nc3)c2)s1` [Example 391, 3-{[(2R)-4-(2,2-difluoroethyl)morpholin-2-yl]methoxy}-5-(5-methyl-1,3-thiazol-2-yl)-N-{(1R)-1-[2-(trifluoromethyl)pyrimidin-5-yl]ethyl}benzamide], the results for the pIC50 on human P2X3 receptor and on human P2X2/3 receptor were 7.72 and 6.08, respectively.
On to `COC(=O)N1CCO[C@@H](COc2cc(C(=O)N[C@H](C)c3cnc(C(F)(F)F)nc3)cc(-c3ncc(C)s3)c2)C1` [Example 392, Methyl (2R)-2-{[3-(5-methyl-1,3-thiazol-2-yl)-5-({(1R)-1-[2-(trifluoromethyl)pyrimidin-5-yl]ethyl}carbamoyl)phenoxy]methyl}morpholine-4-carboxylate], for which the pIC50 is 7.96 on human P2X3 receptor and 6.39 on human P2X2/3 receptor.
Take `COC(=O)N1CCO[C@H](COc2cc(C(=O)N[C@H](C)c3cnc(C(F)(F)F)nc3)cc(-c3ncc(C)s3)c2)C1` [Example 393, methyl (2S)-2-{[3-(5-methyl-1,3-thiazol-2-yl)-5-({(1R)-1-[2-(trifluoromethyl)pyrimidin-5-yl]ethyl}carbamoyl)phenoxy]methyl}morpholine-4-carboxylate]: the values for the pIC50 on human P2X3 receptor and at human P2X2/3 receptor were 7.62 and 5.99, respectively.
In the case of `Cc1cnc(-c2cc(OCC3CNC3)cc(C(=O)N[C@H](C)c3cnc(C(F)(F)F)nc3)c2)s1` [Example 394, 3-(Azetidin-3-ylmethoxy)-5-(5-methyl-1,3-thiazol-2-yl)-N-{(1R)-1-[2-(trifluoromethyl)pyrimidin-5-yl]ethyl}benzamide], the results for the pIC50 on human P2X3 receptor and on human P2X2/3 receptor were 7.09 and 5.40, respectively.
On to `Cc1cnc(-c2cc(OC[C@H]3COCC(=O)N3C)cc(C(=O)N[C@H](C)c3cnc(C(F)(F)F)nc3)c2)s1` [Example 395, 3-{[(3R)-4-methyl-5-oxomorpholin-3-yl]methoxyl}-5-(5-methyl-1,3-thiazol-2-yl)-N-{(1R)-1-[2-(trifluoromethyl)pyrimidin-5-yl]ethyl}benzamide], for which the values for the pIC50 on human P2X3 receptor and on human P2X2/3 receptor were 7.52 and 5.88, respectively.
Consider `Cc1cnc(-c2cc(OC[C@H]3COCC(=O)N3)cc(C(=O)N[C@H](C)c3cnc(C(F)(F)F)nc3)c2)s1` [Example 396, 3-(5-methyl-1,3-thiazol-2-yl)-5-{[(3R)-5-oxomorpholin-3-yl]methoxy}-N-{(1R)-1-[2-(trifluoromethyl)pyrimidin-5-yl]ethyl}benzamide], for which the pIC50 on human P2X3 receptor is 7.66; on human P2X2/3 receptor, 5.74.
For `Cc1cnc(-c2cc(OC[C@@H]3CN(C)C(=O)O3)cc(C(=O)N[C@H](C)c3cnc(C(F)(F)F)nc3)c2)s1` [Example 397, 3-{[(5S)-3-methyl-2-oxo-1,3-oxazolidin-5-yl]methoxy}-5-(5-methyl-1,3-thiazol-2-yl)-N-{(1R)-1-[2-(trifluoromethyl)pyrimidin-5-yl]ethyl}benzamide], in that order: 7.82 and 5.87.
`Cc1cnc(-c2cc(OC[C@H]3CN(C)C(=O)O3)cc(C(=O)N[C@H](C)c3cnc(C(F)(F)F)nc3)c2)s1` [Example 398, 3-{[(5R)-3-methyl-2-oxo-1,3-oxazolidin-5-yl]methoxy}-5-(5-methyl-1,3-thiazol-2-yl)-N-{(1R)-1-[2-(trifluoromethyl)pyrimidin-5-yl]ethyl}benzamide]: the pIC50 at human P2X3 receptor was 7.77; on human P2X2/3 receptor it was 5.75.
For `Cc1cnc(-c2cc(OC[C@H]3CN(C)C(=O)CO3)cc(C(=O)N[C@H](C)c3cnc(C(F)(F)F)nc3)c2)s1` [Example 399, 3-{[(2R)-4-methyl-5-oxomorpholin-2-yl]methoxy}-5-(5-methyl-1,3-thiazol-2-yl)-N-{(1R)-1-[2-(trifluoromethyl)pyrimidin-5-yl]ethyl}benzamide], in that order: 7.16 and 5.76.
Take `Cc1cnc(-c2cc(OC[C@@H]3CNC(=O)CO3)cc(C(=O)N[C@H](C)c3cnc(C(F)(F)F)nc3)c2)s1` [Example 400, 3-(5-methyl-1,3-thiazol-2-yl)-5-{[(2S)-5-oxomorpholin-2-yl]methoxy}-N-{(1R)-1-[2-(trifluoromethyl)pyrimidin-5-yl]ethyl}benzamide]: the values for the pIC50 at human P2X3 receptor and on human P2X2/3 receptor were 7.23 and 5.83, respectively.
Take `Cc1cnc(-c2cc(OC[C@@H]3CN(C)C(=O)CO3)cc(C(=O)N[C@H](C)c3cnc(C(F)(F)F)nc3)c2)s1` [Example 401, 3-{[(2S)-4-methyl-5-oxomorpholin-2-yl]methoxy}-5-(5-methyl-1,3-thiazol-2-yl)-N-{(1R)-1-[2-(trifluoromethyl)pyrimidin-5-yl]ethyl}benzamide]: the pIC50 was 7.52 at human P2X3 receptor and 5.83 at human P2X2/3 receptor.
